Experimental findings from patent US4550115A, “Certain piperidino-lower-alkylene esters of 3-methylflavone-8-carboxylates possessing smooth muscle relaxant activity” (Recordati S.A., Chemical & Pharmaceutical Company, priority 1981, dated 1985) are described below.

One may read the LD50 as the dose expected to kill half of the subjects tested. Read a low LD50 as a more toxic substance. As a reminder, the fraction remaining is the share of the starting amount still present when the sample was taken.

The structures appear in SMILES notation. Counter-ions that a name gives are not always drawn. Like-named read-outs stand apart in the source and are kept apart here.

One data set can be described thus: in vivo. The conditions noted are these: mouse.
A further data set is described as follows: physchem. The conditions noted are these: phosphate buffer, pH 7.4.
In another data set the test system is guinea pig ileum. The data set can be described thus: Antispastic or antispasmodic activity, BaCl2-induced contraction of guinea pig ileum (Magnus method). The conditions noted are these: Cavia porcellus, 1 min, read-out: ED50 (antispastic or antispasmodic activity).
For data set [1], the system named is guinea pig depolarized taenia coli. The data set can be described thus: Calcium blocking activity on guinea pig depolarized taenia coli (Ferrari and Carpenedo). The conditions noted are these: Cavia porcellus; cumulative CaCl2, K+-depolarized guinea pig taenia coli; read-out: Calcium blocking activity ED50. The protocol:
The calcium blocking activity was tested on guinea pig depolarized taenia coli, according to the method described by Ferrari and Carpenedo [Arch. Int. Pharmacodyn., 174, 223 (1968)]. The guinea pig taenia coli was allowed to stabilize in Tyrode solution without Ca^++. It was then washed with K2 SO4 Ringer solution and afterwards perfused with KNO3 Ringer. Cumulative concentrations of CaCl2 were added to the organ bath in absence or presence of the test drug.

The subject of data set [2] is guinea pig isolated ureter. The data set can be described thus: Antispastic activity, spontaneous mobility of guinea pig isolated ureter (Trendelemburg method). The conditions noted are these: Cavia porcellus.
Description: The smooth muscle relaxant activity of the novel flavone derivatives was also measured through the spontaneous mobility of guinea pig isolated ureter. […] The ureter was allowed to stabilize in Tyrode solution with the upper part closed and the inner part connected to a pressure transducer. The test drugs were given cumulatively and the spontaneous circular and longitudinal contractions of the ureter were measured.
Setting [3] is: guinea pig ileum, 30° C., BaCl2 1 to 4.10^-4 M, drug one minute before BaCl2, inhibition of contraction.
The mark [4] stands for this setting: circular contractions, cumulative dosing, read-out: Antispastic Activity Isolated Ureter ED50, circular contractions.
Where [5] appears, read: longitudinal contractions, cumulative dosing, read-out: Antispastic Activity Isolated Ureter ED50, longitudinal contractions.

Description for guinea pig ileum: The antispastic or antispasmodic activity was evaluated following the Magnus method [Pflugers Arch. […] Two equal contractions were induced by BaCl2 at a concentration ranging between 1 and 4.10^-4 M in guinea pig ileum maintained at 30° C. in Ringer solution and aerated with Carbogen.
The test drug was administered and, one minute later, BaCl2 in the same concentration. The inhibition of the contraction was observed.
Description for physchem: Such stability was measured at 37° C. in simulated gastric fluid (U.S. Pat. No. XX, 1105, 1980) and in phosphate buffer (pH 7.4) by spectrodensitometric determination of 3-methylflavone-8-carboxylic acid resulting from eventual hydrolysis.

In the data set “in vivo” (ip), `Cc1c(-c2ccccc2)oc2c(C(=O)OC3CCN(C)CC3)cccc2c1=O` [Active compound 10, 1-methyl-4-piperidinyl] gave an LD50 of 150 µmol/kg. In addition, the LD50 in the data set “in vivo” (po) was determined as 850 µmol/kg. Also, in the data set “physchem”, the fraction remaining at 1 h was found to be 100% and the fraction remaining at 3 h was 100%.
In the case of `Cc1c(-c2ccccc2)oc2c(C(=O)O[C@@H]3CCCC[C@@H]3N3CCCCC3)cccc2c1=O.Cl` (relative stereo) [Active compound 8, cis-2-piperidino-cyclohexyl 3-methyl-flavone-8-carboxylate hydrochloride], the IC50 was 2.7 µM in the data set with guinea pig ileum (setting [3]), 7.3 µM in data set [1], 5 µM in data set [2] (setting [4]) and 2.5 µM in data set [2] (setting [5]). The compound further registered an LD50 in the data set “in vivo” (po) of 2160 µmol/kg. In the data set “physchem”, this compound yielded an amount remaining at 1 h of 85%. The compound also gave a share remaining at 3 h in the data set “physchem” of 70%.
`Cc1c(-c2ccccc2)oc2c(C(=O)OCCCN3CCCCC3C)cccc2c1=O` (centres unmarked) [Active compound 1, 3-(2-methyl-N-piperidino)-propyl 3-methylflavone-8-carboxylate hydrochloride]: the IC50 was 4 µM with guinea pig ileum (setting [3]), 24 µM in data set [1], 8.5 µM in data set [2] (setting [4]) and 6.9 µM in data set [2] (setting [5]). In addition, the LD50 in “in vivo” (ip) amounted to 560 µmol/kg; in the data set “in vivo” (po), 1860 µmol/kg. The compound further had an amount remaining at 1 h in the data set “physchem” of 100%. Moreover, in “physchem”, the fraction remaining at 3 h was found to be 100%.
In the case of `Cc1c(-c2ccccc2)oc2c(C(=O)OC3CC4CCC(C3)N4C)cccc2c1=O` (centres unmarked) [Active compound 12, 3-tropinyl-3-methylflavone-8-carboxylate], the IC50 in the data set on guinea pig ileum is 4.3 µM; in data set [2] (read-out: Antispastic Activity Isolated Ureter ED50, circular contractions) it was 20 µM; in data set [2] (read-out: Antispastic Activity Isolated Ureter ED50, longitudinal contractions), 9 µM. Further, the results for the LD50 in “in vivo” (ip) and in the data set “in vivo” (po) were 420 µmol/kg and 950 µmol/kg, respectively. In addition, the fraction remaining at 1 h in “physchem” was found to be 100%. Besides, in “physchem”, the share remaining at 3 h is 100%.
Regarding `Cc1c(-c2ccccc2)oc2c(C(=O)OC(C)CCN3CCCCC3)cccc2c1=O` (centres unmarked) [Active compound 2, 1-methyl-3-(N-piperidino)propyl], the IC50 in the data set on guinea pig ileum (setting [3]) amounted to 6.2 µM; in data set [1], 16 µM. Moreover, the results for the LD50 in the data set “in vivo” (ip) and in the data set “in vivo” (po) were 160 µmol/kg and 690 µmol/kg, respectively. In “physchem”, this compound had a fraction remaining at 1 h of 100%. Besides, the share remaining at 3 h in “physchem” came out at 100%.
As to `Cc1c(-c2ccccc2)oc2c(C(=O)OC(C)(C)CN3CCCCC3C)cccc2c1=O` (centres unmarked) [Active compound 6], the IC50 in the data set with guinea pig ileum (setting [3]) was 3.4 µM; in data set [1] it was 7.5 µM; in data set [2] (setting [4]) it was 5.3 µM; in data set [2] (setting [5]), 2.5 µM. In “physchem”, this compound had an amount remaining at 1 h of 100%. In “physchem”, this compound returned a fraction remaining at 3 h of 100%.
Regarding `Cc1c(-c2ccccc2)oc2c(C(=O)OCCN3CCCCC3)cccc2c1=O` [FLAVOXATE, 2-(N-piperidino)ethyl 3-methylflavone-8-carboxylate hydrochloride, reference compound], the results for the IC50 (in the data set on guinea pig ileum (setting [3]); in data set [1]) were 5.6 µM and 25 µM, respectively. Also, the LD50 in the data set “in vivo” (ip) turned out to be 900 µmol/kg; in “in vivo” (po), 1890 µmol/kg. The same compound showed a fraction remaining at 1 h in the data set “physchem” of 22%. This compound came in with a fraction remaining at 3 h in “physchem” of 10%.
Turning to `Cc1c(-c2ccccc2)oc2c(C(=O)O[C@@H]3CCCC[C@H]3N3CCCCC3)cccc2c1=O` (relative stereo) [Active compound 14], in the data set on guinea pig ileum (setting [3]), the IC50 came out at 7.7 µM.
Take `Cc1c(-c2ccccc2)oc2c(C(=O)OC3CCCCC3CN3CCCCC3)cccc2c1=O` (centres unmarked) [Active compound 9, 2-piperidinomethyl cyclohexyl]: the IC50 in the data set with guinea pig ileum (setting [3]) is 4 µM; in data set [1], 26 µM. Further, the figures for the LD50 in the data set “in vivo” (ip) and in the data set “in vivo” (po) were 190 µmol/kg and 1080 µmol/kg, respectively. In “physchem”, this compound yielded an amount remaining at 1 h of 88%. Besides, in the data set “physchem”, the amount remaining at 3 h worked out at 87%.
`Cc1c(-c2ccccc2)oc2c(C(=O)OC(C)CN3CCCCC3)cccc2c1=O` (centres unmarked) [Active compound 3, 1-methyl-piperidino-ethyl]: the IC50 in the data set with guinea pig ileum (setting [3]) was found to be 9.7 µM; in data set [1], 19 µM. In addition, the LD50 turned out to be 500 µmol/kg in “in vivo” (ip) and 850 µmol/kg in “in vivo” (po). In addition, the fraction remaining at 1 h in “physchem” was found to be 40%. The amount remaining at 3 h in the data set “physchem” was determined as 30%.
`Cc1c(-c2ccccc2)oc2c(C(=O)OC3CCCN(C)C3)cccc2c1=O.Cl` (centres unmarked) [Active compound 11, N-methyl-3-piperidyl 3-methylflavone-8-carboxylate hydrochloride]: the LD50 in “in vivo” (ip) stood at 360 µmol/kg. This compound had an LD50 in the data set “in vivo” (po) of 770 µmol/kg. Moreover, in the data set “physchem”, the fraction remaining at 1 h was 100% and the share remaining at 3 h turned out to be 100%.
As to `Cc1c(-c2ccccc2)oc2c(C(=O)OC(C)(C)CN3CCCCC3)cccc2c1=O` [Active compound 5, 1,1-dimethyl-2-(N-piperidino)ethyl-3-methylflavone-8-carboxylate], the IC50 in the data set with guinea pig ileum (setting [3]) is 2.4 µM; in data set [1], 8.6 µM; in data set [2] (setting [4]), 12 µM; in data set [2] (setting [5]), 2.8 µM. In addition, the share remaining at 1 h in “physchem” came to 96%. In addition, in the data set “physchem”, the amount remaining at 3 h was determined as 91%.
For `Cc1c(-c2ccccc2)oc2c(C(=O)OC(CN3CCCCC3)c3ccccc3)cccc2c1=O` (centres unmarked) [Active compound 4, 1-phenyl-2-piperidino-ethyl], in the data set on guinea pig ileum (setting [3]), the IC50 amounted to 6.7 µM. In “physchem”, this compound yielded an amount remaining at 1 h of 68% and a share remaining at 3 h of 34%.
`Cc1c(-c2ccccc2)oc2c(C(=O)OCC(O)CN3CCCCC3)cccc2c1=O` (centres unmarked) [Active compound 7, 2-hydroxy-3-(N-piperidino)propyl 3-methylflavone-8-carboxylate] registered an LD50 in the data set “in vivo” (ip) of 580 µmol/kg. Also, the LD50 in “in vivo” (po) amounted to 3100 µmol/kg. In “physchem”, this compound showed a share remaining at 1 h of 44% and a share remaining at 3 h of 25%.
